In patent US20240360289A1, “EPOXY RESIN FOAM, CARBON DIOXIDE ABSORBENT, METHOD FOR PRODUCING EPOXY RESIN FOAM, MULTILAYER STRUCTURE AND METHOD FOR PRODUCING SAME” (MITSUBISHI GAS CHEMICAL COMPANY, INC., priority 2021, published 2024):

Assay: Maximum carbon dioxide release temperature of amine compound (DSC after CO2 absorption)
Format: physicochemical
Details: amine compound after 24 hours in air at 23° C. and 50% RH; DSC 23 to 250° C., 10° C./minute, nitrogen
Description: (Maximum Carbon Dioxide (CO2) Release Temperature of Amine Compound)
A carbon dioxide detector and a Petri dish were placed in an openable desiccator (inner dimension: 370 mm×260 mm×272 mm). Subsequently the amine compound (5 mmol) was added to the Petri dish in the desiccator and the door was immediately closed to leave the amine compound to stand in the desiccator in an air environment at 23° C. and 50% RH for 24 hours. The initial concentration of carbon dioxide was adjusted to about 400 ppm.
Then the amine compound was removed from the desiccator to give an amine compound with carbon dioxide absorbed. The maximum carbon dioxide release temperature of the amine compound with carbon dioxide absorbed was measured by subjecting the amine compound to DSC as described below. First, differential scanning calorimetry of the amine compound was performed under conditions of a temperature range of 23 to 250° C., a heating rate of 10° C./minute and a nitrogen atmosphere using a differential thermogravimeter (product name DTG-60 made by Shimadzu Corporation). The temperature at which the amount of heat absorbed due to the desorption of carbon dioxide was the maximum was calculated from the DSC curve obtained, and the temperature was determined as the maximum carbon dioxide release temperature of the amine compound.

Structure (SMILES) | Maximum carbon dioxide release temperature
CC1(C)CC(N)CC(C)(CN)C1 (centres unmarked) [IPDA, isophoronediamine] | 114.4 °C
NC1CCC(CC2CCC(N)CC2)CC1 (centres unmarked) [PACM, 4,4′-methylenebis(cyclohexylamine), reference compound] | 53 °C

Results, then the compound that gave them:

Maximum carbon dioxide release temperature | Structure (SMILES)
125.7 °C | NCC1CCCC(CN)C1 (centres unmarked) [1,3-BAC, 1,3-bis(aminomethyl)cyclohexane]
81.9 °C | NCCN1CCNCC1 [AEP, N-(2-aminoethyl) piperazine]
135.5 °C | NCc1cccc(CN)c1 [MXDA, metaxylylenediamine]
